Source: patent publication US6815459B2, “Seleno compounds containing nitrone moiety, their preparation and their therapeutic uses” (Sam-Sung Electronics Co., Ltd., priority 2001, dated 2004)
≈ marks a conversion by molar mass, not a printed value. Read-outs that look alike come from different tables or passages of the source.

Experiments:
[1] = Determination of water solubility (UV, saturated solution); assay type: physicochemical; settings: 10 mM phosphate buffer (pH 7.4), stirred 3 hours, filtered; for solubility at 3 h: read-out: C′ (μM) = A′ (C/A), concentration of the saturated solution (water solubility)
Description: With a Beckman DUI® 7500 Spectrophotometer, the UV absorption maximum of each compound was determined by eventually diluting the solution with MeOH as necessary.
A saturated solution of each compound was then prepared by stirring magnetically a small volume of 10 mM phosphate buffer (pH 7.4) in the presence of an excess test compound for 3 hours. The obtained saturated solution was filtered in order to remove solid compound through a Gelman 0.45 m filter and scanned by UV at the wavelength of the absorption maximum previously determined.

[2] = test system: ischemic neuronal degeneration in hippocampus; assay: Protection of cell damage by ischemia (in vivo); parameters: species or system Mongolian gerbils (Meriones unguiculatus); settings: for Protective effects against ischemic neuronal degeneration: gerbil, 60 mg/kg P.O. 30 minutes after ischemic injury (post-treated), 4 days reperfusion
Excerpt: Male Mongolian gerbils (Meriones unguiculatus) weighing 80-88 g were used in the present study. […] A midline ventral incision was made in the neck. Both common carotid arteries were isolated, freed of nerve fibers, and occluded using nontraumatic aneurysm clips. Complete interruption of blood flow was confirmed by observing the central artery in eyeballs using ophthalmoscope. After five minutes of occlusion, the aneurysm clips were removed from both common carotid arteries. Restoration of blood flow (reperfusion) was observed directly under the microscope. Sham-operated controls were subjected to the same surgical procedures except that common carotid arteries were not occluded. Body temperature was monitored and maintained at 37° C.±0.5° C. during surgery and during the immediate postoperative period until the animals recovered fully from anesthesia. At the designated reperfusion time (4 days), operated animals and sham animals were killed. Animals were perfused transcardially with phosphate-buffered saline (PBS, pH 7.4) followed by 4% paraformaldehyde in 0.1 M phosphate buffer (pH 7.4) at 4 days (n=7) after surgery. The brains were removed, and postfixed in the same fixative for 4 hours. The brain tissues were cryoprotected by infiltration with 30% sucrose overnight. Cornoy fixed specimens were cut into 30 sections on a cryostat, were sequentially stained by Cresyl violet dye. Images of staining in the hippocampus of each animal were captured with an […]. […] All data obtained from the quantitative data were analyzed using one-way ANOVA to determine statistical significance. Bonferroni's test was used for post-hoc comparisons. P values below 0.05 or 0.01 were considered statistically significant.

rats [3] = settings: cited from earlier work
mice = settings: oral administration; cited from earlier work
[4] = Inhibition of lipid peroxidation of liposome (TBA method); assay type: biochemical; settings: histidine-FeCl3/FeCl2, 37° C., 15 minutes, read-out: Inhibitor Concentration (IC50), lipid peroxidation
Description: The compounds of the present invention were tested for antioxidant effect in terms of the repression of the radical chain reaction of a multilayer liposome.
The liposome was prepared as followings: 30 mg of commercially available soybean phosphatidylcholine (PC, Sigma Chemical Co., U.S.A.) was dissolved in 1 mL of ethanol, and 200 of the ethanol/PC solution was added to 10 mL of 10 mM Tris buffer including 50 mM NaCl (pH 7.0) with stirring.
The ability of a compound to inhibit oxidation of the liposome was evaluated as followings: To 400 of the liposomes were added the test compound (in buffer or ethanol) and histidine-FeCl3 (167:33 μM final). Oxidation was initiated by the addition of FeCl2 (33 μM final prepared in nitrogen purged water). The mixtures were shaken at 37° C. for 15 minutes. […]. The aliquots were heated to 100° C. for 20 minutes. After ice cooling, 1 mL of chloroform was added to 1 mL of supernatant from tubes and tubes were centrifuged. The absorbances of the resulting supernatant were measured at 532 nm (see: Table 2).

[5] = Glutathione peroxidase like activity (NADPH-glutathione reductase coupled system); assay type: biochemical; settings: 50 μM compound; for Rate A340/min(30˜300 sec) / Rate/0.00622 (nmol NADPH/min/mL): 25° C.; for % Ebselen (glutathione peroxidase activity): relative to Ebselen
Description: Glutathione peroxidase like activity was determined by the reduction of GSSG formed via the NADPH-glutathione reductase system as an indicator system.
To 350 of 50 mM Tris-HCl(pH 7.6) containing 5 mM of EDTA (assay buffer) are added in the following order:
1) 350 of assay buffer containing 6.4 mM of reduced glutathione (GSH), 640 μM of […] (NADPH), and 1.6 unit/mL of glutathione disulfide reductase (GR)
2) 70 of 800 μM of the test compound which was dissolved in DMSO (i.e., each compound was tested at a final concentration of 50 μM)
3) 350 of 0.007% tert-butyl hydroperoxide which was made by 1/10,000 dilution of tert-butyl hydroperoxide with DDW.
The final reaction volume is 1120.
The reaction was carried out at 25° C. […] The said activity or initial enzymatic rate is proportional to the slope of the variation of absorbance with time.
The catalytic activity for oxygen reduction of the compounds tested corresponds to the rate of consumption of NADPH.
They are expressed in n-moles of NADPH consumed per minute.

rats [6] = assay: Acute toxicity LD50 in rats; assay type: in vivo

SMILES | C′ (g/L = mg/mL), concentration of the saturated solution (water solubility) [1] [g/L = mg/mL] | Protective effects against ischemic neuronal degeneration [2] [%] | IC50 [4] [µM] | Rate A340/min(30˜300 sec) [5] [A340/min] | Rate/0.00622 (nmol NADPH/min/mL) [5] [nmol NADPH/min/mL] | % Ebselen (glutathione peroxidase activity) [5] [%] | other results
O=c1c2ccccc2[se]n1-c1ccccc1 [Ebselen, reference compound] | 0.001265 | 59 |  |  |  |  | solubility at 3 h ([1]; aqueous buffer, thermodynamic from solid): 4.62 µM (≈ 1.27 µg/mL); LD50 (rats [3]; intraperitoneal administration): 580 mg/kg; LD50 (rats [3]; oral administration): ≥ 6,810 mg/kg; LD50 (mice): ≥ 6,810 mg/kg
CC(C)/[N+]([O-])=C/c1ccc(-n2[se]c3ccccc3c2=O)cc1 [Example 1, 2-[4-(N-isopropyl)nitronyl]phenyl-1,2-benzisoselenazol-3(2H)-one] |  |  | 81.1 | −0.141 | 22.67 | 119.50 | 
CC(C)/[N+]([O-])=C\c1cccc(-n2[se]c3ccccc3c2=O)c1 [Example 2, 2-[3-(N-isopropyl)nitronyl]phenyl-1,2-benzisoselenazol-3(2H)-one] |  |  | 111 | −0.125 | 20.10 | 105.96 | 
CC(C)[N+]([O-])=Cc1csc(-n2[se]c3ccccc3c2=O)n1 [Example 5, 2-[4-(N-isopropyl)nitronyl]thiazol-2-yl-1,2-benzisoselenazol-3(2H)-one] | 0.0414 | 61 | 1.2 | −0.125 | 20.13 | 106.11 | solubility at 3 h [1]: 113.029 µM (≈ 41.4 µg/mL); Neuroprotective effects compared with Ebselen ([2]; gerbil ischemia, 60 mg/kg P.O.): more neuroprotective effects against ischemic neuronal degeneration than Ebselen; LD50 (rats [6]; intraperitoneal administration in rats): ≥ 800 mg/kg; LD50 (rats [6]; oral administration in rats): ≥ 7,000 mg/kg
CC(C)/[N+]([O-])=C\c1ccc(Cn2[se]c3ccccc3c2=O)cc1 [Example 7, 2-[4-(N-isopropyl)nitronyl]benzyl-1,2-benzisoselenazol-3(2H)-one] |  |  | 246 | −0.084 | 13.50 | 71.17 | 
CC(C)(C)[N+]([O-])=Cc1ccccc1S(=O)(=O)O [S-PBN, reference compound] |  |  | 25000 |  |  |  | 
